Experimental data as given in patent US10160705B2, “Class of HDAC inhibitors expands the renal progenitor cells population and improves the rate of recovery from acute kidney injury” (University of Pittsburgh—Of the Commonwealth System of …, priority 2011, dated 2018).
Where two headings read alike, the source gives them in different places.

Columns and labels:
[1] = test system: zebrafish embryos; assay: Phenotypic screen for edema and survival in zebrafish larvae at 72 hpf; details: for Dead / Edemic 1 (E1) / Edemic 2 (E2) / Edemic 3 (E3) / Wild-type (WT): number of larvae (of 36), 3 μM from 2 hpf, scored at 72 hpf; for effect on zebrafish embryos in the phenotypic screen: 3 μM
Protocol: The screen was performed in zebrafish embryos using the National Cancer Institute's Developmental Therapeutics Program (NCI/DTP) Diversity Set I. This library contains 1990 compounds selected by pharmacophore modeling to represent the more than 140,000 small molecules maintained in the NCI/DTP Open Repository. Compounds from the NCI/DTP Diversity Set I were diluted to 10 μM in E3 embryo medium (5 mM NaCl, 0.33 mM CaCl2, 0.33 mM MgSO4, and 0.17 mM KCl) in a final DMSO concentration of 0.5% and arrayed in 96-well plates. Beginning at approximately 2 hpf, embryos were transferred to each well in groups of five using a glass pipette. The plates were incubated at 28.5° C. for 70 hours. Individual wells were then scored for a dominant phenotype, representative of at least four of the five embryos. The primary objective was to identify compounds that caused edema in treated embryos at 72 hpf. Small molecules generating edema were retested once for verification, before obtaining additional compound from the NCI/DTP Open Repository.
PTBA was synthesized as described below. Hydroxyurea and aphidicolin were obtained from Sigma-Aldrich. Groups of 20 to 30 chorionated 2 hpf embryos were arrayed in individual wells of 12-well plates. E3 medium was removed with a glass pipette and replaced with 1.5 ml treatment solutions containing 0.5% DMSO in E3 with or without compound at the reported concentrations. Treatments for all studies were initiated at 2 hpf, except for the temporal studies (FIG. 6) and the HUA studies (FIG. 11). HUA studies were performed as described previously (Zhang, L., et al. Cell cycle progression is required for zebrafish somite morphogenesis but not segmentation clock function. Development 135, 2065-2070, (2008)), with the following modifications. HUA in 0.5% DMSO was added at early gastrulation (5 hpf) and PTBA was subsequently added at late gastrulation (8 hpf) to allow for penetration of the proliferation inhibitors. All embryos were incubated at 28.5° C. until the required developmental stage.
Following 70 hours of treatment (as described above), edemic phenotypes in 72 hpf larvae were scored using a phenotype-based classification system. Wild type: no visible edema or developmental delay. […] Significant effects (p<0.05) on survival were determined by two-tailed Fisher's exact test in comparison with the 0 μM PTBA treatment group.
PTBA and methyl-4-(phenylthio)butanoate were synthesized as described above. 4-(Naphthalen-2-ylthio)butanoic acid (NSC2733) and 3-(phenylthio)benzoic acid (NSC113994), were obtained from the NCI/DTP Open Repository. APHA compound 8, Apicidin, butanoic acid, PBA, 4-phenoxybutanoic acid, 5-phenylpentanoic acid, Scriptaid, TSA, and valproic acid were obtained from Sigma-Aldrich. MS-275 and SAHA were obtained from Cayman Chemical Co. 4-(phenylsulfonyl)butanoic acid was obtained from Matrix Scientific. Tubacin was a gift of Dr. Ralph Mazitschek of the Broad Institute (Cambridge, Mass.). The remaining PTBA analogs were synthesized. Three independent groups of 12 chorionated 2 hpf embryos were arrayed in individual wells of 24-well plates. E3 medium was removed with a glass pipette and replaced with 800 μl treatment solutions containing 0.5% DMSO in E3 with or without compound at the reported concentrations.
Phenotypic screening of PTBA analogs was performed identically to the concentration-response experiments detailed above. Embryos were treated with each PTBA analog from 2 to 72 hpf as described above.

[2] = test system: renal progenitor cells; assay: In situ hybridization for lhx1a expression in 10-somite embryos (renal progenitor cell expansion); format: in vivo; details: for responders at 3 µM / responders at 1.5 µM / responders at 0.2 µM / responders at 0.4 µM / EC50 / responders at 0.8 µM: Danio rerio; for responders at 0.2 µM: 200 nM, read-out: Expansion of Cells (including repeats* and recounts**) 200 nM; for responders at 0.4 µM: 400 nM, read-out: Expansion of Cells (including repeats* and recounts**) 400 nM; for EC50: first pass EC50 from percent expansion (Excel trendline), average where several experiments; for responders at 0.8 µM: 800 nM, read-out: Expansion of Cells (including repeats* and recounts**) 800 nM
Protocol: PTBA was synthesized as described below. Hydroxyurea and aphidicolin were obtained from Sigma-Aldrich.
In situ hybridization and immunocytochemistry: In situ hybridization was performed as previously described with some modifications.142 Hybridization temperature was 65° C. Embryos were blocked in 2% blocking reagent (Roche) with 5% sheep serum in MAB (100 mM maleic acid and 150 mM NaCl [pH 7.5]). Whole-mount immunocytochemistry with 1:25 mouse anti-α6F antibody (Developmental Studies Hybridoma Bank) and 1:100 Cy3 secondary antibody (Jackson ImmunoResearch) was performed as described previously.108 Embryos were embedded in JB-4 for sectioning per the manufacturer's instructions (Polysciences), sectioned at 5 μm, and mounted with Cytoseal 60 (Richard-Allan Scientific).
The remaining PTBA analogs were synthesized.
In situ hybridization for lhx1a was performed as described above. […] Compounds were classified as effective, partially-effective or ineffective based on comparison to the effects of PTBA at a given concentration.
Testing of the compounds is on-going, but for those tested, Table 6 provides first pass EC50s based upon colormetric in situ hybridizations for the Lhx1a mRNA expression levels. After the procedure is run, in situ hybridization is done for the lhx1 mRNA expression and the number of embryos that show an expanded kidney field is manually counted to establish the percent of embryos showing expansion. Then the EC50 is determined by plotting the percent expansion in Excel, graphing the results and using the trendline function to determine the 50 percent point.

[3] = 3 μM from 2 hpf, 10-somite embryos
[4] = 3 μM from 2 hpf, 10-somite embryos, read-out: lhx1a expansion, percent of treated embryos
[5] = 1.5 μM from 2 hpf, 10-somite embryos
[6] = 1.5 μM from 2 hpf, 10-somite embryos, read-out: lhx1a expansion, percent of treated embryos
[7] = percent of embryos with expanded kidney field, 1.5 μM, read-out: Expansion of Cells (including repeats* and recounts**) 1.5 μM
[8] = percent of embryos with expanded kidney field, 3 μM, read-out: Expansion of Cells (including repeats* and recounts**) 3 μM
[9] = percent of embryos with expanded kidney field

Row | SMILES | Dead [1] | Edemic 1 (E1) [1] | Edemic 2 (E2) [1] | Edemic 3 (E3) [1] | Wild-type (WT) [1] | Lhx1a expansion caused by analog treatment, 3 μM [2, 3] | responders at 1.5 µM [2, 7] | responders at 3 µM [2, 8] | responders at 0.2 µM [2, 9] | responders at 0.4 µM [2, 9] | EC50 [2] | responders at 0.8 µM [2, 9] | also measured
1 | O=C(O)c1cccc(Sc2ccccc2)c1 [3-(phenylthio)benzoic acid, reference compound] | 0 | 34 | 0 | 0 | 2 | − |  |  |  |  |  |  | lhx1a expansion, percent of treated embryos [2, 3]: no expansion
2 | O=C(O)CCCSc1ccc2ccccc2c1 [4-(naphthalen-2-ylthio)butanoic acid, 4-(Naphthalen-2-ylthio)butanoic acid, reference compound] | 2 | 9 | 0 | 0 | 25 | − |  |  |  |  |  |  | lhx1a expansion, percent of treated embryos ([2]; 3 μM from 2 hpf, 10-somite embryos, listed as 4-(napthalen-2-ylthio)butanoic acid): no expansion; responders at 3 µM [2, 4]: 33%
3 | O=C(O)CCCOc1ccccc1 [4-phenoxybutanoic acid, reference compound] | 0 | 0 | 0 | 0 | 36 | − |  |  |  |  |  |  | responders at 3 µM [2, 4]: 13%
4 | O=C(O)CCCCc1ccccc1 [5-phenylpentanoic acid, reference compound] | 0 | 0 | 0 | 0 | 36 | − |  |  |  |  |  |  | lhx1a expansion, percent of treated embryos [2, 3]: no expansion
5 | Cn1cc(C(=O)Cc2ccccc2)cc1/C=C/C(=O)NO [APHA compound 8, reference compound] | 0 | 0 | 0 | 0 | 36 | − |  |  |  |  |  |  | 
6 | Nc1ccccc1NC(=O)c1ccc(CNC(=O)OCc2cccnc2)cc1 [MS-275, reference compound] | 0 | 0 | 0 | 0 | 36 | − |  |  |  |  |  |  | effect on zebrafish embryos in the phenotypic screen [1]: no effect
7 | O=C(CCCCCCC(=O)Nc1ccccc1)NO [SAHA, reference compound] | 0 | 0 | 0 | 0 | 36 | − |  |  |  |  |  |  | effect on zebrafish embryos in the phenotypic screen [1]: no effect
8 | O=C(CCCCCN1C(=O)c2cccc3cccc(c23)C1=O)NO [Scriptaid, reference compound] | 0 | 1 | 0 | 0 | 35 | +/− |  |  |  |  |  |  | responders at 3 µM [2, 4]: 39%
9 | COC(=O)CCCSc1ccc(Cl)cc1 [UPHD-00021, methyl 4-[(4-chloro-phenyl)sulfanyl]butanoate] | 1 | 10 | 6 | 19 | 0 | + | 72% | 97% |  |  |  |  | Lhx1a expansion caused by analog treatment, 1.5 μM [2, 5]: +/−; responders at 1.5 µM [2, 6]: 72%
10 | O=C(CCCSc1ccccc1)NO [UPHD-00023, N-hydroxy- 4(phenyl- sulfanyl)butanamide] | 0 | 3 | 20 | 13 | 0 | + | 92% | 100% | 0% | 6% | 1.3 µM |  | Lhx1a expansion caused by analog treatment, 800 nM ([2]; 800 nM from 2 hpf, 10-somite embryos): +/−; Lhx1a expansion caused by analog treatment, 1.5 μM [2, 5]: +; responders at 1.5 µM [2, 6]: 92%
11 | O=C(CCCCCSc1nc2ccccc2s1)NO [UPHD-00070, 6-(1,3-benzothiazol-2-ylsulfanyl)-N-hydroxyhexanamide] |  |  |  |  |  |  | 0% | 0% | 0% | 0% | > 3 µM | 0% | 
12 | Nc1ccccc1NC(=O)CCCCCSc1nc2ccccc2s1 [UPHD-00071, N-(2-aminophenyl)-6-(1,3-benzothiazol-2-ylsulfanyl)hexanamide] |  |  |  |  |  |  | 26% | 70% | 12% | 42% |  | 74% | 
13 | Nc1ccccc1NC(=O)CCCCCSc1ncccn1 [UPHD-00072, N-(2-aminophenyl)-6-(pyrimidin-2-ylsulfanyl)hexanamide] |  |  |  |  |  |  | 5% | 5% | 0% | 0% | > 3 µM | 5% | 
14 | Nc1ccccc1NC(=O)CCCCCSc1ccccn1 [UPHD-00073, N-(2-aminophenyl)-6-(pyridin-2-ylsulfanyl)hexanamide] |  |  |  |  |  |  | 20% | 30% | 5% | 10% | > 3 µM | 0% | 
15 | O=C(CCCCCSc1ccc(F)cc1)Nc1ccccc1O [UPHD-00077, 6-[(4-fluoro-phenyl)sulfanyl]-N-(2-hydroxyphenyl)hexanamide] |  |  |  |  |  |  |  |  | 40% | 100% | 0.23 µM | 100% | Expansion of Cells (including repeats* and recounts**) 1.5 μM ([2]; percent of embryos with expanded kidney field, 1.5 μM): ND (All Dead); Expansion of Cells (including repeats* and recounts**) 3 μM ([2]; percent of embryos with expanded kidney field, 3 μM): ND (All Dead)
16 | Cn1c(SCCCCCC(=O)Nc2ccccc2N)nc2ccccc21 [UPHD-00081, N-(2-aminophenyl)-6-[(1-methyl-1H-1,3-benzodiazol-2-yl)sulfanyl]hexanamide] |  |  |  |  |  |  | 20% | 32% | 0% | 10% | > 3 µM | 10% | 
17 | COC(=O)CCCCCSc1ccc(OC)cc1 [UPHD-00090, methyl 6-[(4-methoxy-phenyl)sulfanyl]hexanoate] |  |  |  |  |  |  | 26% | 65% | 0% | 12% | 2.34 µM | 25% | 
